The data set can be described thus: Human plasma protein binding (equilibrium dialysis). It counts as in vitro ADME. Particulars: dialysis 18 hours. A general note: In equilibrium dialysis free small molecules cross a membrane that holds back macromolecules.

From patent publication US10590132B2, “Selective estrogen receptor down-regulators” (AstraZeneca AB, priority 2017, dated 2020) come the findings set out here.

Experimental: The automated equilibrium dialysis assay in human plasma uses the RED (Rapid Equilibrium Dialysis) Device and sample handling. The assay generally runs over two to three days including delivery of results. After dialysis for 18 hours, plasma and buffer samples are prepared for analysis by liquid chromatography and mass spectrometry. Samples are generally tested in singlicates and quantified by LC/MSMS by using a 7-point calibration curve in plasma. The compounds are pooled together in plasma pools up to 10 compounds. Three reference compounds are used in each run, Propranolol, Metoprolol and Warfarin. Warfarin is used as a control in each pool and Propranolol and Metoprolol are placed randomly in each run. An in-house Excel macro is used for preparation of files for the robot and the mass spectrometer and is also used for the calculations of fraction unbound (fu %) in plasma.

In the case of `C[C@@H]1Cc2c([nH]c3ccccc23)[C@@H](c2c(Cl)ccc(OCCNCCCF)c2F)N1CC(F)(F)F` [Example 78, N-(2-(4-chloro-2-fluoro-3-((1R,3R)-3-methyl-2-(2,2,2-trifluoroethyl)-2,3,4,9-tetrahydro-1H-pyrido[3,4-b]indol-1-yl)phenoxy)ethyl)-3-fluoropropan-1-amine], the “Human plasma protein binding (% free)” value came out at 0.21 % free. With `C[C@@H]1Cc2c([nH]c3ccc(F)cc23)[C@@H](c2c(F)cnc(OCCNCCCF)c2F)N1CC1(F)CC1` [Example 109, N-(2-((3,5-difluoro-4-((1R,3R)-6-fluoro-2-((1-fluorocyclopropyl)methyl)-3-methyl-2,3,4,9-tetrahydro-1H-pyrido[3,4-b]indol-1-yl)pyridin-2-yl)oxy)ethyl)-3-fluoropropan-1-amine], the “Human plasma protein binding (% free)” value was 1.9 % free. In the case of `Cc1c(OCCN(C)CCCF)ncc(F)c1[C@@H]1c2[nH]c3ccccc3c2C[C@@H](C)N1C(C)CC(=O)O` (single isomer, unassigned) [Example 159], the “Human plasma protein binding (% free)” value came out at 13 % free. The same measure for `Cc1c([C@@H]2c3[nH]c4ccccc4c3C[C@@H](C)N2C[C@H](C)C(=O)O)ccnc1OCCNCCCF` [Example 132, (S)-3-((1R,3R)-1-(2-2-((3-(fluoropropyl)amino)ethoxy)-3-methylpyridin-4-yl)-3-methyl-1,3,4,9-tetrahydro-2H-pyrido[3,4-b]indol-2-yl)-2-methylpropanoic acid]: 34 % free; for `CC(CN1[C@H](c2c(Cl)ccc(OCCNCCCF)c2Cl)c2[nH]c3ccc(F)cc3c2C[C@H]1C)C(=O)O` (single isomer, unassigned) [Example 129]: 23 % free. For `C[C@@H]1Cc2c([nH]c3c(F)cccc23)[C@@H](c2c(F)ccc(OCCNCCCF)c2F)N1CC(F)(F)CO` [Example 60, 3-((1R,3R)-1-(2,6-difluoro-3-(2-((3-fluoropropyl)amino)ethoxy)phenyl)-8-fluoro-3-methyl-1,3,4,9-tetrahydro-2H-pyrido[3,4-b]indol-2-yl)-2,2-difluoropropan-1-ol] the value was 1.9 % free; for `C[C@@H]1Cc2c([nH]c3ccccc23)[C@@H](c2c(F)ccc(OCCN(C)CCCF)c2C(F)F)N1C[C@H](C)C(=O)O` [Example 148, (S)-3-((1R,3R)-1-(2-(difluoromethyl)-6-fluoro-3-(2-((3-fluoropropyl)(methyl)amino)ethoxy)phenyl)-3-methyl-1,3,4,9-tetrahydro-2H-pyrido[3,4-b]indol-2-yl)-2-methylpropanoic acid], 10 % free; for `C[C@@H]1Cc2c([nH]c3ccccc23)[C@@H](c2cccc(OCCNCCCF)n2)N1CC(F)(F)F` [Example 34, 3-fluoro-N-(2-((6-((1S,3R)-3-methyl-2-(2,2,2-trifluoroethyl)-2,3,4,9-tetrahydro-1H-pyrido[3,4-b]indol-1-yl)pyridin-2-yl)oxy)ethyl)propan-1-amine], 2.2 % free. In the case of `C[C@@H]1Cc2c([nH]c3ccccc23)[C@@H](c2nccc(OCCNCCCF)c2Cl)N1CC(F)(F)F` [Example 93, N-(2-((3-chloro-2-((1S,3R)-3-methyl-2-(2,2,2-trifluoroethyl)-2,3,4,9-tetrahydro-1H-pyrido[3,4-b]indol-1-yl)pyridin-4-yl)oxy)ethyl)-3-fluoropropan-1-amine], the “Human plasma protein binding (% free)” value was determined as 0.34 % free. On to `COc1ccc(OCCNCCCF)nc1[C@@H]1c2[nH]c3ccccc3c2C[C@@H](C)N1CC(F)(F)F` [Example 56, 3-fluoro-N-(2-((5-methoxy-6-((1S,3R)-3-methyl-2-(2,2,2-trifluoroethyl)-2,3,4,9-tetrahydro-1H-pyrido[3,4-b]indol-1-yl)pyridin-2-yl)oxy)ethyl)propan-1-amine], for which the “Human plasma protein binding (% free)” value was determined as 4.6 % free.

For `C[C@@H]1Cc2c([nH]c3cc(F)ccc23)[C@@H](c2c(F)ccc(OCCNCCCF)c2F)N1CC(F)(F)CO` [Example 61, 3-((1R,3R)-1-(2,6-difluoro-3-(2-((3-fluoropropyl)amino)ethoxy)phenyl)-7-fluoro-3-methyl-1,3,4,9-tetrahydro-2H-pyrido[3,4-b]indol-2-yl)-2,2-difluoropropan-1-ol], the “Human plasma protein binding (% free)” value is reported as 2.0 % free. Turning to `C[C@@H]1Cc2c([nH]c3ccccc23)[C@@H](c2nccc(NCCNCCCF)c2F)N1CC(F)(F)F` [Example 94, N1-(3-fluoro-2-((1S,3R)-3-methyl-2-(2,2,2-trifluoroethyl)-2,3,4,9-tetrahydro-1H-pyrido[3,4-b]indol-1-yl)pyridin-4-yl)-N2-(3-fluoropropyl)ethane-1,2-diamine], the “Human plasma protein binding (% free)” value came to 7 % free. The same measure for `C[C@@H]1Cc2c([nH]c3ccccc23)[C@@H](c2c(F)ccc(OCCNCCCF)c2Cl)N1CC(C)(C)C(=O)O` [Example 131, 3-((1R,3R)-1-(2-chloro-6-fluoro-3-(2-((3-fluoropropyl)amino)ethoxy)phenyl)-3-methyl-1,3,4,9-tetrahydro-2H-pyrido[3,4-b]indol-2-yl)-2,2-dimethylpropanoic acid]: 32 % free; for `Cc1ncc(OCCNCCCF)cc1[C@@H]1c2[nH]c3ccccc3c2C[C@@H](C)N1CC(F)(F)F` [Example 37, 3-fluoro-N-(2-((6-methyl-5-((1R,3R)-3-methyl-2-(2,2,2-trifluoroethyl)-2,3,4,9-tetrahydro-1H-pyrido[3,4-b]indol-1-yl)pyridin-3-yl)oxy)ethyl)propan-1-amine]: 2.3 % free; for `COc1ccc(NCCNCCCF)c(F)c1[C@@H]1c2[nH]c3ccccc3c2C[C@@H](C)N1CC(F)(F)F` [Example 90, N1-(2-fluoro-4-methoxy-3-((1R,3R)-3-methyl-2-(2,2,2-trifluoroethyl)-2,3,4,9-tetrahydro-1H-pyrido[3,4-b]indol-1-yl)phenyl)-N2-(3-fluoropropyl)ethane-1,2-diamine]: 1.1 % free. The same measure for `C[C@@H]1Cc2c([nH]c3ccccc23)[C@@H](c2c(F)ccc(OCCN(C)CCCF)c2F)N1CC1(F)COC1` [Example 154, N-(2-(2,4-difluoro-3-((1R,3R)-2-((3-fluorooxetan-3-yl)methyl)-3-methyl-2,3,4,9-tetrahydro-1H-pyrido[3,4-b]indol-1-yl)phenoxy)ethyl)-3-fluoro-N-methylpropan-1-amine]: 2.7 % free. For `C[C@@H]1Cc2c([nH]c3ccccc23)[C@@H](c2c(F)cnc(OCCNCCCF)c2Cl)N1CC(F)(F)CO` [Example 111, 3-((1R,3R)-1-(3-chloro-5-fluoro-2-(2-((3-fluoropropyl)amino)ethoxy)pyridin-4-yl)-3-methyl-1,3,4,9-tetrahydro-2H-pyrido[3,4-b]indol-2-yl)-2,2-difluoropropan-1-ol] the value was 1.4 % free. `Cc1c(OCCNCCCF)ccc(F)c1[C@@H]1c2[nH]c3ccccc3c2CC(C)(C)N1C[C@H](C)C(=O)O` [Example 134, (S)-3-((R)-1-(6-fluoro-3-(2-((3-fluoropropyl)amino)ethoxy)-2-methylphenyl)-3,3-dimethyl-1,3,4,9-tetrahydro-2H-pyrido[3,4-b]indol-2-yl)-2-methylpropanoic acid]: the “Human plasma protein binding (% free)” value was determined as 36 % free. For `COc1ccc(NCCNCCCF)cc1[C@@H]1c2[nH]c3ccccc3c2C[C@@H](C)N1CC(F)(F)F` [Example 40, N1-(3-fluoropropyl)-N2-(4-methoxy-3-((1R,3R)-3-methyl-2-(2,2,2-trifluoroethyl)-2,3,4,9-tetrahydro-1H-pyrido[3,4-b]indol-1-yl)phenyl)ethane-1,2-diamine] the value was 0.89 % free; for `C[C@@H]1Cc2c([nH]c3ccc(F)cc23)[C@@H](c2c(F)ccc(NCCNCCCF)c2F)N1CC(F)(F)CO` [Example 89, 3-((1R,3R)-1-(2,6-difluoro-3-((2-((3-fluoropropyl)amino)ethyl)amino)phenyl)-6-fluoro-3-methyl-1,3,4,9-tetrahydro-2H-pyrido[3,4-b]indol-2-yl)-2,2-difluoropropan-1-ol], less than 3.4 % free. Take `Cc1c(OCCNCCCF)ncnc1[C@@H]1c2[nH]c3ccccc3c2C[C@@H](C)N1CC(F)(F)CO` [Example 115, 2,2-difluoro-3-((1S,3R)-1-(6-(2-((3-fluoropropyl)amino)ethoxy)-5-methylpyrimidin-4-yl)-3-methyl-1,3,4,9-tetrahydro-2H-pyrido[3,4-b]indol-2-yl)propan-1-ol]: the “Human plasma protein binding (% free)” value was found to be 11 % free. For `C[C@@H]1Cc2c([nH]c3ccccc23)[C@@H](c2cccc(OCCNCCCF)c2C(F)F)N1CC(F)(F)CO` [Example 68, 3-((1R,3R)-1-(2-(difluoromethyl)-3-(2-((3-fluoropropyl)amino)ethoxy)phenyl)-3-methyl-1,3,4,9-tetrahydro-2H-pyrido[3,4-b]indol-2-yl)-2,2-difluoropropan-1-ol] the value was 1.2 % free. The same measure for `Cc1c(OCCNCCCF)cncc1[C@@H]1c2[nH]c3ccccc3c2C[C@@H](C)N1CC(F)(F)F` [Example 38, 3-fluoro-N-(2-((4-methyl-5-((1R,3R)-3-methyl-2-(2,2,2-trifluoroethyl)-2,3,4,9-tetrahydro-1H-pyrido[3,4-b]indol-1-yl)pyridin-3-yl)oxy)ethyl)propan-1-amine]: 0.91 % free; for `Cc1c([C@@H]2c3[nH]c4ccccc4c3C[C@@H](C)N2CC(F)(F)F)ccnc1OCCNCCCF` [Example 106, 3-fluoro-N-(2-((3-methyl-4-((1R,3R)-3-methyl-2-(2,2,2-trifluoroethyl)-2,3,4,9-tetrahydro-1H-pyrido[3,4-b]indol-1-yl)pyridin-2-yl)oxy)ethyl)propan-1-amine]: 0.34 % free; for `C[C@@H]1Cc2c([nH]c3ccccc23)[C@@H](c2cc(OCCNCCCF)ccc2Cl)N1CC(F)(F)F` [Example 22, N-(2-(4-chloro-3-((1R,3R)-3-methyl-2-(2,2,2-trifluoroethyl)-2,3,4,9-tetrahydro-1H-pyrido[3,4-b]indol-1-yl)phenoxy)ethyl)-3-fluoropropan-1-amine]: 0.61 % free.
